Experimental data published in patent US20230085307A1, “PYRIDAZINONE COMPOUND AND HERBICIDE” (NISSAN CHEMICAL CORPORATION, priority 2019, published 2023).

How the values were obtained:
windgrass [1] = test: Test Example 4: herbicidal effect by soil treatment (Table 19, symbol L); format: in vivo, windgrass (Apera spica-venti); details: amount of applied herbicide 320 g/ha
Method in brief: (§1)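 In this soil treatment, the formulated compound reached the seeds only through the soil: seeds were buried about 1.5 cm deep in sterilized diluvial soil, then the diluted emulsion was sprayed over the surface. After three weeks at 25° C. to 30° C. in a greenhouse, effects were graded on criteria from an earlier test.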

velvetleaf = test: Test Example 5: herbicidal effect by foliage application, plastic box (Table 20, symbol M); format: in vivo, velvetleaf (Abutilon theophrasti); details: foliage application, 320 g/ha, three weeks after application
Method in brief: (§2)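 Plants were sown into sterilized diluvial soil under about 1.5 cm cover and kept in a greenhouse at 25° C. to 30° C. Fourteen days on, foliage received an even spray of the diluted emulsion. Herbicidal or crop effect was judged three weeks afterwards.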

green foxtail [2] = test: Test Example 5: herbicidal effect by foliage application, plastic box (Table 20, symbol G); format: in vivo, green foxtail (Setaria viridis); details: foliage application, 320 g/ha, three weeks after application
Method in brief: as §2

persian speedwell = test: Test Example 5: herbicidal effect by foliage application, plastic box (Table 20, symbol R); format: in vivo, Persian speedwell (Veronica persica); details: foliage application, 320 g/ha, three weeks after application
Method in brief: as §2

wild oat [3] = test: Test Example 4: herbicidal effect by soil treatment (Table 19, symbol I); format: in vivo, wild oat (Avena fatua); details: amount of applied herbicide 320 g/ha
Method in brief: as §1

green foxtail [4] = test: Test Example 4: herbicidal effect by soil treatment (Table 19, symbol G); format: in vivo, green foxtail (Setaria viridis); details: amount of applied herbicide 320 g/ha
Method in brief: as §1

chickweed = test: Test Example 4: herbicidal effect by soil treatment (Table 19, symbol P); format: in vivo, common chickweed (Stellaria media); details: amount of applied herbicide 320 g/ha
Method in brief: as §1

lambsquarters [5] = test: Test Example 5: herbicidal effect by foliage application, plastic box (Table 20, symbol O); format: in vivo, lambsquarters (Chenopodium album); details: foliage application, 320 g/ha, three weeks after application
Method in brief: as §2

windgrass [6] = test: Test Example 5: herbicidal effect by foliage application, plastic box (Table 20, symbol L); format: in vivo, windgrass (Apera spica-venti); details: foliage application, 320 g/ha, three weeks after application
Method in brief: as §2

Japanese bulrush = test: Test Example 2: herbicidal activity, application during weed generation under submerged conditions (Table 17, symbol B); format: in vivo, Japanese bulrush (Schoenoplectus juncoides); details: AAH 320 g/ha; application during weed generation, submerged conditions
Method in brief: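 Alluvial soil in Wagner pots was flooded to 4 cm depth and sown with the three weeds together; pots were kept in a greenhouse at 25° C. to 30° C. At the one to two leaf stage, an emulsion formulation diluted in water to a set rate went onto the water surface; scored three weeks later.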

Chinese sprangletop = test: Test Example 3: herbicidal effect by foliage application, Wagner pot (Table 18, symbol D); format: in vivo, chinese sprangletop (Leptochloa chinensis); details: amount of applied herbicide 320 g/ha
Method in brief: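 Plants were sown in alluvial soil held under 0.1–0.5 cm standing water and grown 14 days in a greenhouse at 25–30 °C. An emulsifiable formulation, water-diluted to the set dose, was then sprayed onto the foliage, and effects were scored three weeks later using previously defined criteria.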

Italian ryegrass = test: Test Example 4: herbicidal effect by soil treatment (Table 19, symbol K); format: in vivo, Italian ryegrass (Lolium multiflorum); details: amount of applied herbicide 320 g/ha
Method in brief: as §1

wild oat [7] = test: Test Example 5: herbicidal effect by foliage application, plastic box (Table 20, symbol I); format: in vivo, wild oat (Avena fatua); details: foliage application, 320 g/ha, three weeks after application
Method in brief: as §2

barnyard grass = test: Test Example 4: herbicidal effect by soil treatment (Table 19, symbol H); format: in vivo, barnyard grass (Echinochloa crus-galli); details: amount of applied herbicide 320 g/ha
Method in brief: as §1

lambsquarters [8] = test: Test Example 4: herbicidal effect by soil treatment (Table 19, symbol O); format: in vivo, lambsquarters (Chenopodium album); details: amount of applied herbicide 320 g/ha
Method in brief: as §1

late watergrass = test: Test Example 1: herbicidal activity, application before weed generation under submerged conditions (Table 16, symbol A); format: in vivo, late watergrass (Echinochloa oryzicola); details: amount of applied herbicide 320 g/ha
Method in brief: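 Emulsion formulation, water-diluted to set dose, was put onto the flooded surface (4 cm depth, alluvial soil) the same day weeds were sown and 2.5-leaf rice transplanted. After 3 weeks at 25-30 °C under glass, each species was rated 0 (≤5% kill) to 5 (≥90% kill).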

Row | Compound | L: windgrass, herbicidal effect grade (windgrass [1]) | herbicidal effect on velvetleaf (M) (velvetleaf) | herbicidal effect on green foxtail (G) (green foxtail [2]) | herbicidal effect on persian speedwell (R) (persian speedwell) | I: wild oat, herbicidal effect grade (wild oat [3]) | G: green foxtail, herbicidal effect grade (green foxtail [4]) | P: chickweed, herbicidal effect grade (chickweed) | herbicidal effect on lambsquarters (O) (lambsquarters [5]) | herbicidal effect on windgrass (L) (windgrass [6]) | herbicidal effect rating, B: Japanese bulrush (Japanese bulrush) | Herbicidal effect on D (Chinese sprangletop), foliage application (Chinese sprangletop) | K: Italian ryegrass, herbicidal effect grade (Italian ryegrass) | herbicidal effect on wild oat (I) (wild oat [7]) | H: barnyard grass, herbicidal effect grade (barnyard grass) | O: lambsquarters, herbicidal effect grade (lambsquarters [8]) | Herbicidal effect, A: late watergrass (late watergrass)
1 | CCCOc1ccc(-c2oc3ccccc3c2-c2c(O)c(C)nn(C)c2=O)cc1 [8-003] | 0 (Herbicidal rate of 5% or less (almost no effect)) | 5 (Herbicidal rate of 90% or more (almost completely withered)) | 5 (Herbicidal rate of 90% or more (almost completely withered)) | 5 (Herbicidal rate of 90% or more (almost completely withered)) | 0 (Herbicidal rate of 5% or less (almost no effect)) | 2 (Herbicidal rate of 20% or more and less than 40%) | 1 (Herbicidal rate of 5% or more and less than 20%) | 3 (Herbicidal rate of 40% or more and less than 70%) | 0 (Herbicidal rate of 5% or less (almost no effect)) | 3 (Herbicidal rate of 40% or more and less than 70%) | 3 (Herbicidal rate of 40% or more and less than 70%) | 4 (Herbicidal rate of 70% or more and less than 90%) | 1 (Herbicidal rate of 5% or more and less than 20%) | 5 (Herbicidal rate of 90% or more (almost completely withered)) | 3 (Herbicidal rate of 40% or more and less than 70%) | 5 (Herbicidal rate of 90% or more (almost completely withered))
2 | C=CCOc1ccc(-c2oc3ccccc3c2-c2c(O)c(C)nn(C)c2=O)cc1 [8-004] | 0 (Herbicidal rate of 5% or less (almost no effect)) | 2 (Herbicidal rate of 20% or more and less than 40%) | 3 (Herbicidal rate of 40% or more and less than 70%) | 5 (Herbicidal rate of 90% or more (almost completely withered)) | 0 (Herbicidal rate of 5% or less (almost no effect)) | 3 (Herbicidal rate of 40% or more and less than 70%) | 1 (Herbicidal rate of 5% or more and less than 20%) | 3 (Herbicidal rate of 40% or more and less than 70%) | 4 (Herbicidal rate of 70% or more and less than 90%) | 3 (Herbicidal rate of 40% or more and less than 70%) | 3 (Herbicidal rate of 40% or more and less than 70%) | 4 (Herbicidal rate of 70% or more and less than 90%) | 3 (Herbicidal rate of 40% or more and less than 70%) | 4 (Herbicidal rate of 70% or more and less than 90%) | 2 (Herbicidal rate of 20% or more and less than 40%) | 5 (Herbicidal rate of 90% or more (almost completely withered))
3 | Cc1ccc2oc(-c3ccc4c(c3)OCCO4)c(-c3c(O)c(C)nn(C)c3=O)c2c1 [9-012] | 0 (Herbicidal rate of 5% or less (almost no effect)) | 5 (Herbicidal rate of 90% or more (almost completely withered)) | 2 (Herbicidal rate of 20% or more and less than 40%) | 5 (Herbicidal rate of 90% or more (almost completely withered)) | 0 (Herbicidal rate of 5% or less (almost no effect)) | 3 (Herbicidal rate of 40% or more and less than 70%) | 3 (Herbicidal rate of 40% or more and less than 70%) | 3 (Herbicidal rate of 40% or more and less than 70%) | 2 (Herbicidal rate of 20% or more and less than 40%) | 4 (Herbicidal rate of 70% or more and less than 90%) | 0 (Herbicidal rate of 5% or less (almost no effect)) | 4 (Herbicidal rate of 70% or more and less than 90%) | 0 (Herbicidal rate of 5% or less (almost no effect)) | 2 (Herbicidal rate of 20% or more and less than 40%) | 3 (Herbicidal rate of 40% or more and less than 70%) | 4 (Herbicidal rate of 70% or more and less than 90%)
4 | CCCC(=O)Oc1c(C)nn(C)c(=O)c1-c1c(-c2ccc3c(c2)OCCO3)oc2ccc(C)cc12 [9-013] | 0 (Herbicidal rate of 5% or less (almost no effect)) | 5 (Herbicidal rate of 90% or more (almost completely withered)) | 0 (Herbicidal rate of 5% or less (almost no effect)) | 5 (Herbicidal rate of 90% or more (almost completely withered)) | 0 (Herbicidal rate of 5% or less (almost no effect)) | 3 (Herbicidal rate of 40% or more and less than 70%) | 0 (Herbicidal rate of 5% or less (almost no effect)) | 3 (Herbicidal rate of 40% or more and less than 70%) | 0 (Herbicidal rate of 5% or less (almost no effect)) | 0 (Herbicidal rate of 5% or less (almost no effect)) | 0 (Herbicidal rate of 5% or less (almost no effect)) | 0 (Herbicidal rate of 5% or less (almost no effect)) | 0 (Herbicidal rate of 5% or less (almost no effect)) | 1 (Herbicidal rate of 5% or more and less than 20%) | 0 (Herbicidal rate of 5% or less (almost no effect)) | 3 (Herbicidal rate of 40% or more and less than 70%)
5 | Cc1nn(C)c(=O)c(-c2c(-c3ccc(OCC(C)C)cc3)oc3ccc(F)cc23)c1O [9-027] | 4 (Herbicidal rate of 70% or more and less than 90%) | 5 (Herbicidal rate of 90% or more (almost completely withered)) | 5 (Herbicidal rate of 90% or more (almost completely withered)) | 5 (Herbicidal rate of 90% or more (almost completely withered)) | 0 (Herbicidal rate of 5% or less (almost no effect)) | 5 (Herbicidal rate of 90% or more (almost completely withered)) | 1 (Herbicidal rate of 5% or more and less than 20%) | 5 (Herbicidal rate of 90% or more (almost completely withered)) | 5 (Herbicidal rate of 90% or more (almost completely withered)) | 3 (Herbicidal rate of 40% or more and less than 70%) | 2 (Herbicidal rate of 20% or more and less than 40%) | 4 (Herbicidal rate of 70% or more and less than 90%) | 4 (Herbicidal rate of 70% or more and less than 90%) | 4 (Herbicidal rate of 70% or more and less than 90%) | 5 (Herbicidal rate of 90% or more (almost completely withered)) | 5 (Herbicidal rate of 90% or more (almost completely withered))
